Blank lines part the entries; values can stand above or below the compound they belong to.
Experiments:
Format in all cases: ADME
[1] = test system: Liver microsome; assay: Drug metabolism human liver microsomes treated with 100 uM anastrozole assessed as retention time by mass spectrometry analysis
[2] = test system: Liver microsome; assay: Drug metabolism human liver microsomes treated with 100 uM lamotrigine assessed as retention time by mass spectrometry analysis
[3] = Drug metabolism in human liver microsomes assessed as UGT1A4 -217T>G(GG) mutant-mediated compound glucuronidation at 100 uM by mass spectrometry analysis
[4] = Drug metabolism in human liver microsomes assessed as UGT1A4 -219C>T(CC) mutant-mediated compound glucuronidation at 100 uM by mass spectrometry analysis
[5] = Drug metabolism in human liver microsomes assessed as UGT1A4 -219C>T(CT) mutant-mediated compound glucuronidation at 100 uM by mass spectrometry analysis
[6] = Drug metabolism in human liver microsomes assessed as UGT1A4 -219C>T(TT) mutant-mediated compound glucuronidation at 100 uM by mass spectrometry analysis
[7] = test system: Liver microsome; assay: Drug metabolism in human liver microsomes assessed as glucuronide formation per mg protein by mass spectrometry analysis
[8] = test system: Liver microsome; assay: Drug metabolism in pooled human liver microsomes assessed as IC50 for hecogenin-mediated inhibition of anastrozole glucuronidation after 90 mins; conditions: 1.5 h
[9] = target: T1, UDP-glucuronosyltransferase 1A4 (Homo sapiens, UniProt P22310); assay: Drug metabolism assessed as hecogenin-mediated inhibition of human recombinant UGT1A4-catalyzed anastrozole glucuronidation after 90 mins
T1 sequence (P22310 whole entry): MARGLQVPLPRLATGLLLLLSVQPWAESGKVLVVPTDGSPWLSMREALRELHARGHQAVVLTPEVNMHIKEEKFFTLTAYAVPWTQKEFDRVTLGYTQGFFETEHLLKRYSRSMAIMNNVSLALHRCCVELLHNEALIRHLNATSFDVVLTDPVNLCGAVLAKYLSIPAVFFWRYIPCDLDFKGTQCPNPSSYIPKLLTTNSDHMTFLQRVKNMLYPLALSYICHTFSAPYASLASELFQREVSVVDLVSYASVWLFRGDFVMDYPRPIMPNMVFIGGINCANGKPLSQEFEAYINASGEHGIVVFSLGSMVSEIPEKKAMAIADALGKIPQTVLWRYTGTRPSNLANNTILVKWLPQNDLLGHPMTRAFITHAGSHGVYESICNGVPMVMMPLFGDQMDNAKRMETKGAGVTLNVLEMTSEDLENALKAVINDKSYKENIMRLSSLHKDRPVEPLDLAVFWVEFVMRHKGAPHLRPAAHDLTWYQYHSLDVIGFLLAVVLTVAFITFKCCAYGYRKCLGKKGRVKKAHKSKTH

[10] = test system: Liver microsome; assay: Drug metabolism in human liver microsomes assessed as retention time at 100 uM by mass spectrometry analysis
[11] = Drug metabolism in human liver microsomes assessed as UGT1A4 70C>A (AC) mutant-mediated compound glucuronidation at 100 uM by mass spectrometry analysis
[12] = Drug metabolism in human liver microsomes assessed as UGT1A4 70C>A (CC) mutant-mediated compound glucuronidation at 100 uM by mass spectrometry analysis
[13] = Drug metabolism in human liver microsomes assessed as UGT1A4 70C>A (AA) mutant-mediated compound glucuronidation at 100 uM by mass spectrometry analysis
[14] = Drug metabolism in human liver microsomes assessed as UGT1A4 142T>G (TT) mutant-mediated compound glucuronidation at 100 uM by mass spectrometry analysis
[15] = Drug metabolism in human liver microsomes assessed as UGT1A4 142T>G (TG) mutant-mediated compound glucuronidation at 100 uM by mass spectrometry analysis
[16] = Drug metabolism in human liver microsomes assessed as UGT1A4 142T>G (GG) mutant-mediated compound glucuronidation at 100 uM by mass spectrometry analysis
[17] = Drug metabolism in human liver microsomes assessed as UGT1A4 -36G>A (GG) mutant-mediated compound glucuronidation at 100 uM by mass spectrometry analysis
[18] = Drug metabolism in human liver microsomes assessed as UGT1A4 -36G>A (AG) variant-mediated compound glucuronidation at 100 uM by mass spectrometry analysis
[19] = Drug metabolism in human liver microsomes assessed as UGT1A4 -36G>A (AA) variant-mediated compound glucuronidation at 100 uM by mass spectrometry analysis
[20] = Drug metabolism in human liver microsomes assessed as UGT1A4 -163G>A(GG) variant-mediated compound glucuronidation at 100 uM by mass spectrometry analysis
[21] = Drug metabolism in human liver microsomes assessed as UGT1A4 -163G>A(AG) mutant-mediated compound glucuronidation at 100 uM by mass spectrometry analysis
[22] = Drug metabolism in human liver microsomes assessed as UGT1A4 -163G>A(AA) variant-mediated compound glucuronidation at 100 uM by mass spectrometry analysis
[23] = Drug metabolism in human liver microsomes assessed as UGT1A4 -217T>G(TT) variant-mediated compound glucuronidation at 100 uM by mass spectrometry analysis
[24] = Drug metabolism in human liver microsomes assessed as UGT1A4 -217T>G(TG) variant-mediated compound glucuronidation at 100 uM by mass spectrometry analysis

Retention_time [1]: 2.86 min
SMILES: CC(C)(C#N)c1cc(Cn2c[n+]([C@@H]3O[C@H](C(=O)[O-])[C@@H](O)[C@H](O)[C@H]3O)cn2)cc(C(C)(C)C#N)c1

Retention_time [2]: 1.34 min
SMILES: Nc1nc(N)[n+]([C@@H]2O[C@H](C(=O)[O-])[C@@H](O)[C@H](O)[C@H]2O)nc1-c1cccc(Cl)c1Cl

Drug metabolism [3]: 1.9 pmol/min/µg
Drug metabolism [4]: 0.4 pmol/min/µg
Drug metabolism [5]: 0.9 pmol/min/µg
Drug metabolism [6]: 1 pmol/min/µg
Drug metabolism [7]: 0.023 pmol/min
IC50 [8]: 15 µM
IC50 [9]: 4.72 µM
Retention_time [10]: 3.95 min
Drug metabolism [11]: 0.3 pmol/min/µg
Drug metabolism [12]: 0.4 pmol/min/µg
Drug metabolism [13]: 0.8 pmol/min/µg
Drug metabolism [14]: 0.5 pmol/min/µg
Drug metabolism [15]: 0.3 pmol/min/µg
Drug metabolism [16]: 0.3 pmol/min/µg
Drug metabolism [17]: 0.3 pmol/min/µg
Drug metabolism [18]: 1 pmol/min/µg
Drug metabolism [19]: 1.3 pmol/min/µg
Drug metabolism [20]: 0.4 pmol/min/µg
Drug metabolism [21]: 0.7 pmol/min/µg
Drug metabolism [22]: 0.8 pmol/min/µg
Drug metabolism [23]: 0.3 pmol/min/µg
Drug metabolism [24]: 1.5 pmol/min/µg
SMILES: CC(C)(C#N)c1cc(Cn2cncn2)cc(C(C)(C)C#N)c1 [ANASTROZOLE]

Drug metabolism [7]: metabolite_detected
Retention_time [10]: 1.63 min
SMILES: Nc1nnc(-c2cccc(Cl)c2Cl)c(N)n1 [LAMOTRIGINE]
